Experimental data published in US4866038A, “Method of stimulating integumental melanocytes by topical application of analogs of alpha-msh” (University Patents, Inc., priority 1988, dated 1989).
Non-standard residues stand in square brackets, D forms with d. Residues, ends and D or L forms follow the SMILES beside them. dPhe(4-NO2) = N[C@H](Cc1ccc([N+](=O)[O-])cc1)C(=O)O; dPhg = N[C@@H](C(=O)O)c1ccccc1; Phg = N[C@H](C(=O)O)c1ccccc1; Nle = CCCC[C@H](N)C(=O)O

Assays:
frog (Rana pipiens) = format: cell-based
Procedure: (§1) Biological effect on in vivo and in vitro melanosome dispersion was examined using the frog (Rana pipiens) and the lizard (Anolis caroliniensis). [See Hadley et al., Science 213:1025-1027(1981)]; similar examinations were conducted with respect to the duration of its ability to stimulate melanosome dispersion in vitro using the skin bioassay as described in Shimume, Endrochrinology, 54:553-560(1954). The in vitro results are depicted in Table I.

[1] = test system: lizard (Anolis caroliniensis); format: cell-based
Procedure: as §1

SMILES | Relative Potency Frog (frog (Rana pipiens)) | Relative Potency Lizard [1]
CCCC[C@H](NC(C)=O)C(=O)N[C@@H](CCC(=O)O)C(=O)N[C@@H](Cc1c[nH]cn1)C(=O)N[C@@H](C)C(=O)N[C@@H](CCCNC(=N)N)C(=O)N[C@@H](Cc1c[nH]c2ccccc12)C(=O)NCC(=O)N[C@@H](CCCCN)C(N)=O [Ac--[Nle^4 --Ala^7]--alpha-MSH4-11 --NH2] (Ac-[Nle]EHARWGK-NH2) | 0.02 | 0.009
CCCC[C@H](NC(C)=O)C(=O)N[C@@H](CCC(=O)O)C(=O)N[C@@H](Cc1c[nH]cn1)C(=O)N[C@H](C)C(=O)N[C@@H](CCCNC(=N)N)C(=O)N[C@@H](Cc1c[nH]c2ccccc12)C(=O)NCC(=O)N[C@@H](CCCCN)C(N)=O [Ac--[Nle^4 --D-Ala^7]--alpha-MSH4-11 --NH2] (Ac-[Nle]EH[dA]RWGK-NH2) | 0.000080 | 0.020
CCCC[C@H](NC(C)=O)C(=O)N[C@@H](CCC(=O)O)C(=O)N[C@@H](Cc1c[nH]cn1)C(=O)N[C@@H](Cc1ccccc1)C(=O)N[C@H](CCCNC(=N)N)C(=O)N[C@@H](Cc1c[nH]c2ccccc12)C(=O)NCC(=O)N[C@@H](CCCCN)C(N)=O [Ac--[Nle^4 --D-Arg^8]--alpha-MSH4-11 --NH2] (Ac-[Nle]EHF[dR]WGK-NH2) | 0.000016 | 0.0022
CCCC[C@H](NC(C)=O)C(=O)N[C@@H](CCC(=O)O)C(=O)N[C@H](Cc1c[nH]cn1)C(=O)N[C@H](Cc1ccccc1)C(=O)N[C@@H](CCCNC(=N)N)C(=O)N[C@@H](Cc1c[nH]c2ccccc12)C(=O)NCC(=O)N[C@@H](CCCCN)C(N)=O [Ac--[Nle^4 --D-His^6 --D-Phe^7]--alpha-MSH4-11 --NH2] (Ac-[Nle]E[dH][dF]RWGK-NH2) | 0.0006 | 0.053
CCCC[C@H](NC(C)=O)C(=O)N[C@@H](CCC(=O)O)C(=O)N[C@H](Cc1c[nH]cn1)C(=O)N[C@@H](Cc1ccccc1)C(=O)N[C@@H](CCCNC(=N)N)C(=O)N[C@@H](Cc1c[nH]c2ccccc12)C(=O)NCC(=O)N[C@@H](CCCCN)C(N)=O [Ac--[Nle^4 --D-His^6]--alpha-MSH4-11 --NH2] (Ac-[Nle]E[dH]FRWGK-NH2) | 0.0014 | 0.002
CCCC[C@H](NC(C)=O)C(=O)N[C@@H](CCC(=O)O)C(=O)N[C@@H](Cc1c[nH]cn1)C(=O)N[C@H](Cc1ccccc1)C(=O)N[C@H](CCCNC(=N)N)C(=O)N[C@@H](Cc1c[nH]c2ccccc12)C(=O)NCC(=O)N[C@@H](CCCCN)C(N)=O [Ac--[Nle^4 --D-Phe^7 --D-Arg^8]--alpha-MSH4-11 --NH2] (Ac-[Nle]EH[dF][dR]WGK-NH2) | 0.00010 | 0.0022
CCCC[C@H](NC(C)=O)C(=O)N[C@@H](CCC(=O)O)C(=O)N[C@@H](Cc1c[nH]cn1)C(=O)N[C@H](Cc1ccccc1)C(=O)N[C@@H](CCCNC(=N)N)C(=O)N[C@H](Cc1c[nH]c2ccccc12)C(N)=O [Ac--[Nle^4 --D-Phe^7 --D-Trp^9]--alpha-MSH4-9 --NH2] (Ac-[Nle]EH[dF]R[dW]-NH2) | 0.03 | 3.8
CCCC[C@H](NC(C)=O)C(=O)N[C@@H](CCC(=O)O)C(=O)N[C@@H](Cc1c[nH]cn1)C(=O)N[C@H](Cc1ccccc1)C(=O)N[C@@H](CCCNC(=N)N)C(=O)N[C@H](Cc1c[nH]c2ccccc12)C(=O)NCC(=O)N[C@@H](CCCCN)C(N)=O [Ac--[Nle^4 --D-Phe^7 --D-Trp^9]--alpha-MSH4-11 --NH2] (Ac-[Nle]EH[dF]R[dW]GK-NH2) | 3.17 | 10.5
CCCC[C@H](NC(C)=O)C(=O)N[C@@H](CCC(=O)O)C(=O)N[C@@H](Cc1c[nH]cn1)C(=O)N[C@H](Cc1ccccc1)C(=O)N[C@@H](CCCNC(=N)N)C(=O)N[C@@H](Cc1c[nH]c2ccccc12)C(=O)NCC(=O)N[C@@H](CCCCN)C(N)=O [Ac--[Nle^4 --D-Phe^7]--alpha-MSH4-11 --NH2] (Ac-[Nle]EH[dF]RWGK-NH2) | 0.012 | 8.0
CCCC[C@H](NC(C)=O)C(=O)N[C@@H](CCC(=O)O)C(=O)N[C@@H](Cc1c[nH]cn1)C(=O)N[C@@H](C(=O)N[C@@H](CCCNC(=N)N)C(=O)N[C@@H](Cc1c[nH]c2ccccc12)C(=O)NCC(=O)N[C@@H](CCCCN)C(N)=O)c1ccccc1 [Ac--[Nle^4 --D-Plg^7]--alpha-MSH4-11 --NH2] (Ac-[Nle]EH[dPhg]RWGK-NH2) | 0.0003 | 0.0005
CCCC[C@H](NC(C)=O)C(=O)N[C@@H](CCC(=O)O)C(=O)N[C@@H](Cc1c[nH]cn1)C(=O)N[C@@H](Cc1ccccc1)C(=O)N[C@@H](CCCNC(=N)N)C(=O)N[C@H](Cc1c[nH]c2ccccc12)C(=O)NCC(=O)N[C@@H](CCCCN)C(N)=O [Ac--[Nle^4 --D-Trp^9]--alpha-MSH4-11 --NH2] (Ac-[Nle]EHFR[dW]GK-NH2) | 0.61 | 1.7
CCCC[C@H](NC(C)=O)C(=O)N[C@@H](CCC(=O)O)C(=O)N[C@@H](Cc1c[nH]cn1)C(=O)N[C@H](Cc1ccc([N+](=O)[O-])cc1)C(=O)N[C@@H](CCCNC(=N)N)C(=O)N[C@@H](Cc1c[nH]c2ccccc12)C(=O)NCC(=O)N[C@@H](CCCCN)C(N)=O [Ac--[Nle^4 --D-pNO2 Phe^7]-- alpha-MSH4-11 --NH2] (Ac-[Nle]EH[dPhe(4-NO2)]RWGK-NH2) | 0.10 | 4.0
CCCC[C@H](NC(C)=O)C(=O)N[C@@H](CCC(=O)O)C(=O)N[C@@H](Cc1c[nH]cn1)C(=O)NCC(=O)N[C@@H](CCCNC(=N)N)C(=O)N[C@@H](Cc1c[nH]c2ccccc12)C(=O)NCC(=O)N[C@@H](CCCCN)C(N)=O [Ac--[Nle^4 --Gly^7]--alpha-MSH4-11 --NH2] (Ac-[Nle]EHGRWGK-NH2) | 0.005 | 0.0005
CCCC[C@H](NC(C)=O)C(=O)N[C@@H](CCC(=O)O)C(=O)N[C@@H](Cc1c[nH]cn1)C(=O)N[C@H](C(=O)N[C@@H](CCCNC(=N)N)C(=O)N[C@@H](Cc1c[nH]c2ccccc12)C(=O)NCC(=O)N[C@@H](CCCCN)C(N)=O)c1ccccc1 [Ac--[Nle^4 --Plg^7]--alpha-MSH4-11 --NH2] (Ac-[Nle]EH[Phg]RWGK-NH2) | 0.14 | 0.14
CCCC[C@H](NC(C)=O)C(=O)N[C@@H](CCC(=O)O)C(=O)N[C@@H](Cc1c[nH]cn1)C(=O)N[C@@H](Cc1ccccc1)C(=O)N[C@@H](CCCNC(=N)N)C(=O)N[C@@H](Cc1c[nH]c2ccccc12)C(N)=O [Ac--[Nle^4 --alpha-MSH4-9 --NH2] (Ac-[Nle]EHFRW-NH2) | 0.0007 | 0.18
CCCC[C@H](NC(C)=O)C(=O)N[C@@H](CCC(=O)O)C(=O)N[C@@H](Cc1c[nH]cn1)C(=O)N[C@@H](Cc1ccccc1)C(=O)N[C@@H](CCCNC(=N)N)C(=O)N[C@@H](Cc1c[nH]c2ccccc12)C(=O)NCC(=O)N[C@@H](CCCCN)C(N)=O [Ac--[Nle^4]-alpha-MSH4-11 --NH2] (Ac-[Nle]EHFRWGK-NH2) | 0.0019 | 1.54
